The values that follow come from patent US20220008398A1 (priority 2018, published 2022).

SMILES strings stand for the structures. “Also recorded” adds a separate entry of the source. Read-outs that look alike come from different tables or passages of the source.

The subject of assay [1] is drug-evoked expression of the immediate early gene c-fos, whole mouse brain. The text has this:
A unique and novel approach to preclinical testing of psychiatric drugs is based on the proposition that a direct readout of drug-evoked brain activation or inhibition in an animal is the most relevant preclinical assay, because psychiatric drugs exert their effects via activation or inhibition of specific neural circuits and cell types in the brain. […] The method called “pharmacomapping” (implemented by Certerra, Inc. Farmingdale, N.Y.) is based on a largely automated drug-screening platform that comprises whole-brain detection of drug-evoked neuronal activation represented by drug-evoked expression of the immediate early gene (IEG) c-fos (Herrera and Robertson 1996). Until now, the detection of c-fos as a marker of brain activation has been done by laborious methods of in situ hybridization or immunohistochemistry in brain tissue sections, followed by mounting the sections on microscopic slides, manual imaging, and largely visual quantification. Nevertheless, over the last two decades a number of studies used these methods to test drug-evoked activity in the mouse or rat brain for various psychoactive medications, including antipsychotics, antidepressants, stimulants and anxiolytics (Engber et al., 1998; Kiss, 2018; Salminen et al., 1996; SEMBA et al., 1996; Slattery et al., 2005; Sumner et al., 2004).
In contrast to the older methods, the pharmacomapping method uses automated and standardized whole-brain immunostaining and brain clearing together with advanced microscopy (light-sheet fluorescence microscopy, LSFM), computational (e.g. machine learning) and statistical methods (FIG. 1). The first generation of this platform used serial two-photon tomography (STPT) as a method for imaging and c-fos-GFP mice expressing green fluorescent protein (GFP) under the control of the c-fos promoter (US 20140297199A1).

In assay [2] the test system is time spent floating (immobility) in forced swim. In words: Forced swim test. Type of assay: in vivo. As to conditions: mouse, single dose 10 mg/kg, 1 hour and 24 hours after drug delivery, vs vehicle treated control group. Here is the method:
The forced swim test is a frequently used behavioral protocol with a well-established therapeutic predictability for a broad range of antidepressants including ketamine (Porsolt et al. 1977; Cryan and Mombereau 2004; Cryan et al. 2005; Lucki et al. 2001). In this test the mouse is put in a beaker filled with water and the time spent struggling, swimming and floating is measured, with the time spent floating—when the mouse stops struggling to swim—being used as a behavioral correlate of depression.

The test system of assay [3] is sleep onset and sleep maintenance. As to conditions: three-month efficacy study, insomnia; cited from earlier work.
For assay [4], the system named is combined delta, theta and alpha activity. As to conditions: 160 minutes after administration; cited from earlier work.
Assay [5] concerns suicidal ideation in major depressive disorder. In words: Prospective randomized clinical trial of oral gaboxadol versus ketamine in patients at risk of suicide.
Assay [6] relates to severe major depressive disorder. As to conditions: 490 patients, daily oral gaboxadol 5 mg or 10 mg added to escitalopram 20 mg; cited from earlier work.
Setting [7] is: acute single dose 10 mg/kg, 10 mg/kg.
Setting [8] is: gaboxadol group vs ketamine group.

Regarding `CNC1(c2ccccc2Cl)CCCCC1=O` (centres unmarked) [ketamine], the “drug-evoked brain activation (pharmacomap)” value in assay [1] (6 mg/kg alone) was “neither gaboxadol at 3 mg/kg nor ketamine at 6 mg/kg alone evoked any brain activation detectable”; in assay [1] (acute single dose 5 mg/kg), “modest activation”; in assay [1] (setting [7]), “very robust and broad activation; also recorded: very broad activation pattern”; in assay [1] (acute single dose 100 mg/kg), “modest activation”. In assay [2], the “time spent floating (immobility) during 6 min forced swim” value is listed as “significantly decreases the time the drug treated mice spent floating; also recorded: significantly reduced the time spent in floating (immobility)”.

For the compound `Oc1noc2c1CCNC2` [gaboxadol, 4,5,6,7-tetrahydroisoxazolo [5,4-c]pyridine-3-ol], the “drug-evoked brain activation (pharmacomap)” value is on record as “neither gaboxadol at 3 mg/kg nor ketamine at 6 mg/kg alone evoked any brain activation detectable” in assay [1] (3 mg/kg alone); “very similar brain activation as ketamine” in assay [1] (setting [7]); “broad brain activation that is highly similar to that of ketamine” in assay [1] (acute single dose 10 mg/kg, listed as Gaboxadol, 10 mg/kg). The “effects in sleep onset and sleep maintenance” value in assay [3] is “failed to show significant effects in sleep onset and sleep maintenance”. Moreover, in assay [2], the “time spent floating (immobility) during 6 min forced swim” value was “nearly identical behavioral effect as the ketamine group; also recorded: significantly reduced the time spent in floating (immobility)”. Also, the “whole head MEG planar gradiometer increase in combined delta, theta and alpha activity” value in assay [4] is recorded as “≥ +3”. For the same compound, in assay [5] (setting [8]), the “day 1 POMS total mood disturbance score” value was “greater improvement in the gaboxadol group compared with the ketamine group”. In addition, the “decrease in suicidal ideation at 230 minutes” value in assay [5] (setting [8]) is “greater in the gaboxadol group compared with the ketamine group”. Also, the “proportion of responders on the SSI at day 1” value in assay [5] (setting [8]) was “significantly higher in the gaboxadol group than the ketamine group”. The “Cohen's d for the difference in mean group change (SSI)” value in assay [5] (gaboxadol group vs ketamine group, baseline to day 1) is given as “greater than medium effect size”. The “average SSI score at day 1” value in assay [5] (gaboxadol hydrochloride 0.85 mg/kg oral vs ketamine 0.5 mg/kg infusion, 24 hours) is reported as “lower in the gaboxadol group compared with the ketamine group”. Also, the “benefit in treatment of severe major depressive disorder” value in assay [6] is given as “no additional benefit”.
